Values after ≈ are worked out from the molar mass of the structure shown. Where two headings read alike, the source gives them in different places.
What was measured:
Mtb. 234/2005 = assay: microbe, parasite or virus in culture; assay type: cell-based; conditions: Mycobacterium tuberculosis, read-out: MIC Mtb. 234/2005
[1] = biological target: T1, mycobacterial isocitrate lyase (ICL1, Rv0467) (Mycobacterium tuberculosis, UniProt P9WKK7); assay: Isocitrate lyase inhibition assay (ICL1); assay type: biochemical, Mycobacterium tuberculosis H37Rv; conditions: 10 μmol/L; read-out: % ICL inhibition at 10 μmol/L (± standard deviation)
T1 construct: His tag (from pET-28b(+)); made in house; host or cells: E. coli BL21(DE3), pET-28b(+) plasmid
T1 sequence (P9WKK7 1-428): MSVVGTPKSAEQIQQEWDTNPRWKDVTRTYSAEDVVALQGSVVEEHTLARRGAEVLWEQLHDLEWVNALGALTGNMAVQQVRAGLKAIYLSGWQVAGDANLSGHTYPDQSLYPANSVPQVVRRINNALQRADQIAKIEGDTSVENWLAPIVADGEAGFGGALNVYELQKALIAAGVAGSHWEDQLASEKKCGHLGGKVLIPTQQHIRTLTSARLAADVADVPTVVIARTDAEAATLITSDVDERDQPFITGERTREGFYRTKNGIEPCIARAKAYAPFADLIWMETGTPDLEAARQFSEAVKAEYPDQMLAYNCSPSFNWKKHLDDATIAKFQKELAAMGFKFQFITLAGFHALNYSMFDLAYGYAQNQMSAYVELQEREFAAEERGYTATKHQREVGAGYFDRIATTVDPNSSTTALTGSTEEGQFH

[2] = test system: Mycobacterium avium 330/88; assay: Antimycobacterial MIC micromethod; assay type: cell-based
Mtb. 7357/1988 = assay: microbe, parasite or virus in culture; assay type: cell-based; conditions: Mycobacterium tuberculosis, read-out: MIC Mtb. 7357/1988
Mtb. Praha 1 = assay: microbe, parasite or virus in culture; assay type: cell-based; conditions: Mycobacterium tuberculosis, read-out: MIC Mtb. Praha 1
[3] = test system: Escherichia coli CCM 4517; assay: Antibacterial microdilution broth method; assay type: cell-based; conditions: read-out: MIC/IC90 E. coli CCM 4517
Experimental: (§1) The in vitro antibacterial activity was assayed against eight Gram-positive and Gram-negative strains: Staphylococcus aureus CCM 4516/08, methicillin-resistant Staphylococcus aureus H 5996/08 (MRSA), Staphylococcus epidermidis H 6966/08, Enterococcus sp. J 14365/08; Escherichia coli CCM 4517, Klebsiella pneumoniae D 11750/08, ESBL-positive Klebsiella pneumoniae J 14368/08, and Pseudomonas aeruginosa CCM 1961.
(§2) The microdilution broth method modified according to standard M07-A07 in Mueller-Hinton broth (HiMedia Laboratories, Mumbai, India) adjusted to pH 7.4 (±0.2) was used. The tested compounds were dissolved in DMSO to the final concentrations ranging from […]. Benzylpenicillin (penicillin G) was used as a comparative drug. Bacterial inoculum in sterile water was prepared to match 0.5 McFarland scale ([…]). The minimum inhibitory concentrations were assayed as 90% (IC90) or higher reduction of growth when compared to the control. The determination of results was performed visually and spectrophotometrically (at 540 nm). The values of MICs were determined after 24 and 48 h of incubation in the darkness at 35 °C (±0.1) in a humid atmosphere.

[4] = test system: Staphylococcus epidermidis H 6966/08; assay: Antibacterial microdilution broth method; assay type: cell-based; conditions: read-out: MIC/IC90 S. epidermidis H 6966/08
Experimental: as §1, §2

[5] = test system: methicillin-resistant Staphylococcus aureus H 5996/08 (MRSA); assay: Antibacterial microdilution broth method; assay type: cell-based; conditions: read-out: MIC/IC90 MRSA H 5996/08
Experimental: as §1, §2

[6] = test system: Staphylococcus aureus CCM 4516/08; assay: Antibacterial microdilution broth method; assay type: cell-based; conditions: read-out: MIC/IC90 S. aureus CCM 4516/08
Experimental: as §1, §2

[7] = test system: Enterococcus sp. J 14365/08; assay: Antibacterial microdilution broth method; assay type: cell-based; conditions: read-out: MIC/IC90 Enterococcus sp. J 14365/08
Experimental: as §1, §2

[8] = test system: Mycobacterium tuberculosis 331/88 (H37Rv); assay: Antimycobacterial MIC micromethod, Šula's medium; assay type: cell-based
[9] = 336 h, 14 d, read-out: MIC Mtb. 331/88
[10] = 504 h, 21 d, read-out: MIC Mtb. 331/88
[11] = time not stated, read-out: MIC against M. tuberculosis

SMILES | MIC (Mtb. 234/2005; 336 h) [µM] | MIC (Mtb. 234/2005; 504 h) [µM] | inhibition at 10 µM [1] [%] | MIC ([2]; 330/88, 336 h, 14 d) [µM] | MIC ([2]; 330/88, 504 h, 21 d) [µM] | MIC (Mtb. 7357/1988; 336 h) [µM] | MIC (Mtb. 7357/1988; 504 h) [µM] | MIC (Mtb. Praha 1; 336 h) [µM] | MIC (Mtb. Praha 1; 504 h) [µM] | MIC ([3]; CCM4517, 24 h) [µM] | MIC ([3]; CCM4517, 48 h) [µM] | MIC ([4]; H6966/08, 24 h) [µM] | MIC ([4]; H6966/08, 48 h) [µM] | MIC ([5]; 24 h) [µM] | MIC ([5]; 48 h) [µM] | MIC ([6]; CCM4516, 24 h) [µM] | MIC ([6]; CCM4516, 48 h) [µM] | MIC ([7]; SP.J14365/08, 24 h) [µM] | MIC ([7]; SP.J14365/08, 48 h) [µM] | MIC [8, 9] [µM] | further results
O=C(Oc1ccc(Cl)cc1C(=O)Nc1ccc(Cl)c(Cl)c1)c1ccc(C(F)(F)F)cc1 [1e] | 1 (≈ 0.489 µg/mL) | 2 (≈ 0.977 µg/mL) | 18 ± 1.5 | 4 (≈ 1.95 µg/mL) | 4 (≈ 1.95 µg/mL) | 1 (≈ 0.489 µg/mL) | 2 (≈ 0.977 µg/mL) | 1 (≈ 0.489 µg/mL) | 2 (≈ 0.977 µg/mL) | > 500 | > 500 | 0.49 (≈ 0.239 µg/mL) | 0.98 (≈ 0.479 µg/mL) | 0.49 (≈ 0.239 µg/mL) | 0.98 (≈ 0.479 µg/mL) | 0.49 (≈ 0.239 µg/mL) | 0.98 (≈ 0.479 µg/mL) | 0.49 (≈ 0.239 µg/mL) | 3.9 (≈ 1.91 µg/mL) | 1 (≈ 0.489 µg/mL) | MIC [8, 10]: 1 µM (≈ 0.489 µg/mL); MIC [8, 11]: 1 µM (≈ 0.489 µg/mL)
O=C(Oc1cc(Cl)ccc1C(=O)Nc1ccc(Br)cc1)c1ccc(C(F)(F)F)cc1 [1j] | 2 (≈ 0.997 µg/mL) | 2 (≈ 0.997 µg/mL) | 14 ± 4 | 8 (≈ 3.99 µg/mL) | 8 (≈ 3.99 µg/mL) | 2 (≈ 0.997 µg/mL) | 2 (≈ 0.997 µg/mL) | 2 (≈ 0.997 µg/mL) | 2 (≈ 0.997 µg/mL) | 250 (≈ 125 µg/mL) | > 250 | 0.49 (≈ 0.244 µg/mL) | 0.98 (≈ 0.489 µg/mL) | 0.49 (≈ 0.244 µg/mL) | 0.98 (≈ 0.489 µg/mL) | 0.49 (≈ 0.244 µg/mL) | 0.98 (≈ 0.489 µg/mL) | 1.95 (≈ 0.972 µg/mL) | 7.81 (≈ 3.89 µg/mL) | 2 (≈ 0.997 µg/mL) | MIC [8, 10]: 4 µM (≈ 1.99 µg/mL)
O=C(Oc1ccc(Cl)cc1C(=O)Nc1ccc(C(F)(F)F)cc1)c1ccc(C(F)(F)F)cc1 [1o, 4-chloro-2-[4-(trifluoromethyl)phenylcarbamoyl]phenyl 4-(trifluoromethyl)benzoate] | 0.5 (≈ 0.244 µg/mL) | 1 (≈ 0.488 µg/mL) | 13 ± 1.2 | 1 (≈ 0.488 µg/mL) | 4 (≈ 1.95 µg/mL) | 0.5 (≈ 0.244 µg/mL) | 1 (≈ 0.488 µg/mL) | 0.5 (≈ 0.244 µg/mL) | 0.5 (≈ 0.244 µg/mL) | > 125 | > 125 | 3.9 (≈ 1.9 µg/mL) | 7.81 (≈ 3.81 µg/mL) | 3.9 (≈ 1.9 µg/mL) | 7.81 (≈ 3.81 µg/mL) | 3.9 (≈ 1.9 µg/mL) | 7.81 (≈ 3.81 µg/mL) | 7.81 (≈ 3.81 µg/mL) | 62.5 (≈ 30.5 µg/mL) | 1 (≈ 0.488 µg/mL) | MIC [8, 10]: 1 µM (≈ 0.488 µg/mL); MIC [8, 11]: 1 µM (≈ 0.488 µg/mL)

Reference: publication PMC6270420, “Antibacterial Activity of Salicylanilide 4-(Trifluoromethyl)benzoates” (Molecules, 2013)
